# Assay results published in ChEMBL document CHEMBL1201862, “PubChem BioAssay data set” (2004).
#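 Briefly, cells in 96-well plates were exposed to five compound concentrations for 48 h, and endpoints were estimated by linear interpolation. At the GI50, growth is halved.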 The source made the active and inactive calls. Cut-off read from the data, not from the text of the source: active = GI50 up to about 1.1 µM and inactive = higher.
# Experiments:
# Experiment in all cases: NCI anticancer screen, dose series, 48 h
# Hs-578T = system: Hs-578T
# SN12C = system: SN12C
# HOP-62 = system: HOP-62
# UO-31 = system: UO-31
# NCI-H23 = system: NCI-H23
# SK-OV-3 = system: SK-OV-3
# MOLT-4 = system: MOLT-4
# DU-145 = system: DU-145
# LOX IMVI = system: LOX IMVI
# OVCAR-3 = system: OVCAR-3
# EKVX = system: EKVX
# NCI/ADR-RES = system: NCI/ADR-RES
# ACHN = system: ACHN
# BT-549 = system: BT-549
# RXF 393 = system: RXF 393
# OVCAR-5 = system: OVCAR-5
# OVCAR-8 = system: OVCAR-8
# RPMI-8226 = system: RPMI-8226
# COLO 205 = system: COLO 205
# SNB-19 = system: SNB-19
# TK-10 = system: TK-10
# SR = system: SR
# SNB-75 = system: SNB-75
# U-251 = system: U-251
# HT-29 = system: HT-29
# KM12 = system: KM12
# K562 = system: K562
# SF-295 = system: SF-295
# SK-MEL-28 = system: SK-MEL-28
# CCRF-CEM = system: CCRF-CEM
# SF-539 = system: SF-539
# Malme-3M = system: Malme-3M
# NCI-H460 = system: NCI-H460
# IGROV-1 = system: IGROV-1
# NCI-H522 = system: NCI-H522
# HOP-92 = system: HOP-92
# MDA-MB-435 = system: MDA-MB-435
# MDA-N = system: MDA-N
# NCI-H226 = system: NCI-H226
# HCT-15 = system: HCT-15
# A549 = system: A549
# MCF7 = system: MCF7
# CAKI-1 = system: CAKI-1
# UACC-62 = system: UACC-62
# M14 = system: M14
# SK-MEL-2 = system: SK-MEL-2
# OVCAR-4 = system: OVCAR-4
# HL-60 = system: HL-60
# SW-620 = system: SW-620
# MDA-MB-231 = system: MDA-MB-231
# UACC-257 = system: UACC-257
# 786-0 = system: 786-0
# SF-268 = system: SF-268
# A498 = system: A498
# SK-MEL-5 = system: SK-MEL-5
# T47D = system: T47D
# PC-3 = system: PC-3
# HCT-116 = system: HCT-116
# HCC 2998 = system: HCC 2998
compound,measurement,setting,value
CCC1([N+](=O)[O-])CN(N=O)C1,GI50,Hs-578T,> 100 µM (inactive)
same,GI50,SN12C,> 100 µM (inactive)
same,GI50,HOP-62,> 100 µM (inactive)
same,GI50,UO-31,> 100 µM (inactive)
same,GI50,NCI-H23,> 100 µM (inactive)
same,GI50,SK-OV-3,> 100 µM (inactive)
same,GI50,MOLT-4,> 100 µM (inactive)
same,GI50,DU-145,> 100 µM (inactive)
same,GI50,LOX IMVI,> 100 µM (inactive)
same,GI50,OVCAR-3,> 100 µM (inactive)
same,GI50,EKVX,> 100 µM (inactive)
same,GI50,NCI/ADR-RES,> 100 µM (inactive)
same,GI50,ACHN,> 100 µM (inactive)
same,GI50,BT-549,> 100 µM (inactive)
same,GI50,RXF 393,> 100 µM (inactive)
same,GI50,OVCAR-5,> 100 µM (inactive)
same,GI50,OVCAR-8,> 100 µM (inactive)
same,GI50,RPMI-8226,> 100 µM (inactive)
same,GI50,COLO 205,> 100 µM (inactive)
same,GI50,SNB-19,> 100 µM (inactive)
same,GI50,TK-10,> 100 µM (inactive)
same,GI50,SR,> 100 µM (inactive)
same,GI50,SNB-75,> 100 µM (inactive)
same,GI50,U-251,> 100 µM (inactive)
same,GI50,HT-29,> 100 µM (inactive)
same,GI50,KM12,> 100 µM (inactive)
same,GI50,K562,> 100 µM (inactive)
same,GI50,SF-295,> 100 µM (inactive)
same,GI50,SK-MEL-28,> 100 µM (inactive)
same,GI50,CCRF-CEM,> 100 µM (inactive)
same,GI50,SF-539,> 100 µM (inactive)
same,GI50,Malme-3M,> 100 µM (inactive)
same,GI50,NCI-H460,> 100 µM (inactive)
same,GI50,IGROV-1,> 100 µM (inactive)
same,GI50,NCI-H522,> 100 µM (inactive)
same,GI50,HOP-92,34.4 µM (inactive)
same,GI50,MDA-MB-435,> 100 µM (inactive)
same,GI50,MDA-N,> 100 µM (inactive)
same,GI50,NCI-H226,> 100 µM (inactive)
same,GI50,HCT-15,> 100 µM
same,GI50,A549,> 100 µM (inactive)
same,GI50,MCF7,> 100 µM (inactive)
same,GI50,CAKI-1,> 100 µM (inactive)
same,GI50,UACC-62,> 100 µM (inactive)
same,GI50,M14,> 100 µM (inactive)
same,GI50,SK-MEL-2,> 100 µM (inactive)
same,GI50,OVCAR-4,> 100 µM (inactive)
same,GI50,HL-60,> 100 µM (inactive)
same,GI50,SW-620,> 100 µM (inactive)
same,GI50,MDA-MB-231,> 100 µM (inactive)
same,GI50,UACC-257,> 100 µM (inactive)
same,GI50,786-0,> 100 µM (inactive)
same,GI50,SF-268,> 100 µM (inactive)
same,GI50,A498,> 100 µM (inactive)
same,GI50,SK-MEL-5,> 100 µM (inactive)
same,GI50,T47D,> 100 µM (inactive)
same,GI50,PC-3,> 100 µM (inactive)
same,GI50,HCT-116,> 100 µM (inactive)
O=C(Cc1ccc(Cl)c(Cl)c1)NCC1(N2CCCCC2)CCCCC1,GI50,Hs-578T,52.2 µM (inactive)
same,GI50,SN12C,66.8 µM (inactive)
same,GI50,HOP-62,> 100 µM (inactive)
same,GI50,UO-31,27.1 µM (inactive)
same,GI50,NCI-H23,57.7 µM (inactive)
same,GI50,SK-OV-3,> 100 µM (inactive)
same,GI50,MOLT-4,35.5 µM (inactive)
same,GI50,DU-145,61 µM (inactive)
same,GI50,LOX IMVI,36.6 µM (inactive)
same,GI50,OVCAR-3,86.5 µM (inactive)
same,GI50,EKVX,59.8 µM (inactive)
same,GI50,NCI/ADR-RES,93.5 µM (inactive)
same,GI50,ACHN,> 100 µM (inactive)
same,GI50,BT-549,55.5 µM (inactive)
same,GI50,RXF 393,21.6 µM (inactive)
same,GI50,OVCAR-5,47.1 µM (inactive)
same,GI50,OVCAR-8,97.3 µM (inactive)
same,GI50,RPMI-8226,35.3 µM (inactive)
same,GI50,SNB-19,> 100 µM (inactive)
same,GI50,TK-10,28.8 µM (inactive)
same,GI50,SR,35.5 µM (inactive)
same,GI50,U-251,69.3 µM (inactive)
same,GI50,HT-29,26.1 µM (inactive)
same,GI50,KM12,50.7 µM (inactive)
same,GI50,K562,50.1 µM (inactive)
same,GI50,SF-295,37.3 µM (inactive)
same,GI50,CCRF-CEM,51.3 µM (inactive)
same,GI50,Malme-3M,21.3 µM (inactive)
same,GI50,NCI-H460,36.8 µM (inactive)
same,GI50,IGROV-1,> 100 µM (inactive)
same,GI50,NCI-H522,38 µM (inactive)
same,GI50,HOP-92,78.7 µM (inactive)
same,GI50,MDA-MB-435,46.3 µM (inactive)
same,GI50,MDA-N,37 µM (inactive)
same,GI50,HCT-15,38.7 µM
same,GI50,A549,41.4 µM (inactive)
same,GI50,MCF7,43.6 µM (inactive)
same,GI50,CAKI-1,> 100 µM (inactive)
same,GI50,UACC-62,20.2 µM (inactive)
same,GI50,M14,18.3 µM (inactive)
same,GI50,SK-MEL-2,46.1 µM (inactive)
same,GI50,OVCAR-4,64 µM (inactive)
same,GI50,HL-60,41.4 µM (inactive)
same,GI50,SW-620,54.6 µM (inactive)
same,GI50,HCC 2998,17 µM (inactive)
same,GI50,MDA-MB-231,58.5 µM (inactive)
same,GI50,UACC-257,17.8 µM (inactive)
same,GI50,786-0,39.3 µM (inactive)
same,GI50,SF-268,85.3 µM (inactive)
same,GI50,A498,60.7 µM (inactive)
same,GI50,T47D,21.1 µM (inactive)
same,GI50,PC-3,40.1 µM (inactive)
same,GI50,HCT-116,40.6 µM (inactive)
COc1cccc(CCn2c(N)c(C(=O)O)c3ccc([N+](=O)[O-])cc3c2=O)c1,GI50,Hs-578T,33.2 µM (inactive)
same,GI50,SN12C,21.8 µM (inactive)
same,GI50,HOP-62,37.2 µM (inactive)
same,GI50,UO-31,31.2 µM (inactive)
same,GI50,NCI-H23,19.5 µM (inactive)
same,GI50,SK-OV-3,35.6 µM (inactive)
same,GI50,MOLT-4,54.1 µM (inactive)
same,GI50,DU-145,40.2 µM (inactive)
same,GI50,LOX IMVI,35.2 µM (inactive)
same,GI50,OVCAR-3,29.4 µM (inactive)
same,GI50,EKVX,51.5 µM (inactive)
same,GI50,NCI/ADR-RES,28.9 µM (inactive)
same,GI50,ACHN,33.7 µM (inactive)
same,GI50,BT-549,25.4 µM (inactive)
same,GI50,RXF 393,28.7 µM (inactive)
same,GI50,OVCAR-5,52.2 µM (inactive)
same,GI50,OVCAR-8,36.6 µM (inactive)
same,GI50,RPMI-8226,22.9 µM (inactive)
same,GI50,COLO 205,20.7 µM (inactive)
same,GI50,SNB-19,39.1 µM (inactive)
same,GI50,SR,40.1 µM (inactive)
same,GI50,SNB-75,24.9 µM (inactive)
same,GI50,U-251,25.9 µM (inactive)
same,GI50,HT-29,38.5 µM (inactive)
same,GI50,K562,67.8 µM (inactive)
same,GI50,SF-295,38.1 µM (inactive)
same,GI50,SK-MEL-28,> 100 µM (inactive)
same,GI50,CCRF-CEM,> 100 µM (inactive)
same,GI50,Malme-3M,37.3 µM (inactive)
same,GI50,NCI-H460,32.8 µM (inactive)
same,GI50,IGROV-1,36.7 µM (inactive)
same,GI50,NCI-H522,28.3 µM (inactive)
same,GI50,MDA-MB-435,38.3 µM (inactive)
same,GI50,MDA-N,30.3 µM (inactive)
same,GI50,NCI-H226,44 µM (inactive)
same,GI50,HCT-15,31.8 µM
same,GI50,A549,27.8 µM (inactive)
same,GI50,MCF7,20.1 µM (inactive)
same,GI50,CAKI-1,43.5 µM (inactive)
same,GI50,UACC-62,52.4 µM (inactive)
same,GI50,M14,45.3 µM (inactive)
same,GI50,SK-MEL-2,22.6 µM (inactive)
same,GI50,OVCAR-4,54 µM (inactive)
same,GI50,HL-60,> 100 µM (inactive)
same,GI50,SW-620,> 100 µM (inactive)
same,GI50,HCC 2998,53.2 µM (inactive)
same,GI50,MDA-MB-231,16.9 µM (inactive)
same,GI50,786-0,31.1 µM (inactive)
same,GI50,SF-268,37.7 µM (inactive)
same,GI50,A498,40.5 µM (inactive)
same,GI50,SK-MEL-5,24 µM (inactive)
same,GI50,T47D,29.3 µM (inactive)
same,GI50,PC-3,29.2 µM (inactive)
same,GI50,HCT-116,25.1 µM (inactive)
